System: K98450-129-R-PDC multicell spheroids, viability
Assay: Anticancer human tumor K98450-129-R-PDC patient-derived colon adenocarcinoma cell line growth inhibition [PI3K]
Details: for IC50: curve of first compound; for viability, T/C: stronger effect = lower value
Outline: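 Tumor cells were combined with HUVEC and MSCs into spheroids, then dosed with PI3K-inhibitor combinations over half-log ranges capped near clinical Cmax or 10 microM.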
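Also: spheroids exposed to agents for seven days before read-out.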

SMILES: CC1(C)CCC(Nc2ncc(C(F)(F)F)c(-c3c[nH]c4c(P(C)(C)=O)c(C#N)ccc34)n2)CN1 (centres undefined) + COc1c(OCCCN2CCOCC2)ccc2c3n(c(=NC(=O)c4cnc(N)nc4)nc12)CCN3
- IC50 (second compound 0.00316 µM): > 10000 nM
- IC50 (second compound 0.01 µM): > 10000 nM
- IC50 (second compound 0.0316 µM): 6600 nM
- IC50 (second compound 0.1 µM): 9230 nM
- IC50 (second compound 0.316 µM): 4720 nM
- IC50 (second compound 1 µM): 31.6 nM
- viability, T/C (second compound 0.00316 µM, first compound 0.0316 µM): 104%
- viability, T/C (second compound 0.00316 µM, first compound 0.1 µM): 99.5%
- viability, T/C (second compound 0.00316 µM, first compound 0.316 µM): 66.3%
- viability, T/C (second compound 0.00316 µM, first compound 1 µM): 60.1%
- viability, T/C (second compound 0.00316 µM, first compound 3.16 µM): 60.3%
- viability, T/C (second compound 0.00316 µM, first compound 10 µM): 52.9%
- viability, T/C (second compound 0.01 µM, first compound 0.0316 µM): 113%
- viability, T/C (second compound 0.01 µM, first compound 0.1 µM): 103%
- viability, T/C (second compound 0.01 µM, first compound 0.316 µM): 67.3%
- viability, T/C (second compound 0.01 µM, first compound 1 µM): 61.6%
- viability, T/C (second compound 0.01 µM, first compound 3.16 µM): 67.3%
- viability, T/C (second compound 0.01 µM, first compound 10 µM): 48.8%
- viability, T/C (second compound 0.0316 µM, first compound 0.0316 µM): 94.6%
- viability, T/C (second compound 0.0316 µM, first compound 0.1 µM): 77.5%
- viability, T/C (second compound 0.0316 µM, first compound 0.316 µM): 68.5%
- viability, T/C (second compound 0.0316 µM, first compound 1 µM): 69.4%
- viability, T/C (second compound 0.0316 µM, first compound 3.16 µM): 61.6%
- viability, T/C (second compound 0.0316 µM, first compound 10 µM): 42.7%
- viability, T/C (second compound 0.1 µM, first compound 0.0316 µM): 79.6%
- viability, T/C (second compound 0.1 µM, first compound 0.1 µM): 86.6%
- viability, T/C (second compound 0.1 µM, first compound 0.316 µM): 63.7%
- viability, T/C (second compound 0.1 µM, first compound 1 µM): 69%
- viability, T/C (second compound 0.1 µM, first compound 3.16 µM): 68.7%
- viability, T/C (second compound 0.1 µM, first compound 10 µM): 46.1%
- viability, T/C (second compound 0.316 µM, first compound 0.0316 µM): 58.3%
- viability, T/C (second compound 0.316 µM, first compound 0.1 µM): 64%
- viability, T/C (second compound 0.316 µM, first compound 0.316 µM): 59%
- viability, T/C (second compound 0.316 µM, first compound 1 µM): 54.7%
- viability, T/C (second compound 0.316 µM, first compound 3.16 µM): 57.8%
- viability, T/C (second compound 0.316 µM, first compound 10 µM): 37.3%
- viability, T/C (second compound 1 µM, first compound 0.0316 µM): 51.6%
- viability, T/C (second compound 1 µM, first compound 0.1 µM): 48.9%
- viability, T/C (second compound 1 µM, first compound 0.316 µM): 48.8%
- viability, T/C (second compound 1 µM, first compound 1 µM): 42.7%
- viability, T/C (second compound 1 µM, first compound 3.16 µM): 50.7%
- viability, T/C (second compound 1 µM, first compound 10 µM): 27.2%

SMILES: Cn1cnc2c(F)c(Nc3ccc(Br)cc3Cl)c(C(=O)NOCCO)cc21 + Cc1nc(NC(=O)N2CCCC2C(N)=O)sc1-c1ccnc(C(C)(C)C(F)(F)F)c1
- IC50 (second compound 0.0316 µM): 1260 nM
- IC50 (second compound 0.1 µM): 1030 nM
- IC50 (second compound 0.316 µM): 998 nM
- IC50 (second compound 1 µM): 694 nM
- IC50 (second compound 3.16 µM): 434 nM
- IC50 (second compound 10 µM): 165 nM
- viability, T/C (second compound 0.0316 µM, first compound 0.00949 µM): 95.2%
- viability, T/C (second compound 0.0316 µM, first compound 0.03 µM): 87.1%
- viability, T/C (second compound 0.0316 µM, first compound 0.0949 µM): 91.9%
- viability, T/C (second compound 0.0316 µM, first compound 0.3 µM): 78.3%
- viability, T/C (second compound 0.0316 µM, first compound 0.949 µM): 61.2%
- viability, T/C (second compound 0.0316 µM, first compound 3 µM): 17.2%
- viability, T/C (second compound 0.1 µM, first compound 0.00949 µM): 107%
- viability, T/C (second compound 0.1 µM, first compound 0.03 µM): 89.1%
- viability, T/C (second compound 0.1 µM, first compound 0.0949 µM): 84.7%
- viability, T/C (second compound 0.1 µM, first compound 0.3 µM): 77%
- viability, T/C (second compound 0.1 µM, first compound 0.949 µM): 54.3%
- viability, T/C (second compound 0.1 µM, first compound 3 µM): 15.6%
- viability, T/C (second compound 0.316 µM, first compound 0.00949 µM): 89%
- viability, T/C (second compound 0.316 µM, first compound 0.03 µM): 89.2%
- viability, T/C (second compound 0.316 µM, first compound 0.0949 µM): 79.1%
- viability, T/C (second compound 0.316 µM, first compound 0.3 µM): 71.2%
- viability, T/C (second compound 0.316 µM, first compound 0.949 µM): 53.5%
- viability, T/C (second compound 0.316 µM, first compound 3 µM): 11.2%
- viability, T/C (second compound 1 µM, first compound 0.00949 µM): 85.3%
- viability, T/C (second compound 1 µM, first compound 0.03 µM): 82.4%
- viability, T/C (second compound 1 µM, first compound 0.0949 µM): 78.9%
- viability, T/C (second compound 1 µM, first compound 0.3 µM): 67.2%
- viability, T/C (second compound 1 µM, first compound 0.949 µM): 43.5%
- viability, T/C (second compound 1 µM, first compound 3 µM): 8.14%
- viability, T/C (second compound 3.16 µM, first compound 0.00949 µM): 76.8%
- viability, T/C (second compound 3.16 µM, first compound 0.03 µM): 74.1%
- viability, T/C (second compound 3.16 µM, first compound 0.0949 µM): 71.3%
- viability, T/C (second compound 3.16 µM, first compound 0.3 µM): 58.5%
- viability, T/C (second compound 3.16 µM, first compound 0.949 µM): 32.1%
- viability, T/C (second compound 3.16 µM, first compound 3 µM): 4.89%
- viability, T/C (second compound 10 µM, first compound 0.00949 µM): 63.1%
- viability, T/C (second compound 10 µM, first compound 0.03 µM): 61.1%
- viability, T/C (second compound 10 µM, first compound 0.0949 µM): 60.3%
- viability, T/C (second compound 10 µM, first compound 0.3 µM): 39.4%
- viability, T/C (second compound 10 µM, first compound 0.949 µM): 10.3%
- viability, T/C (second compound 10 µM, first compound 3 µM): 2.85%

Reference: PubChem BioAssay AID1963961 (Molecular Pharmacology Branch, DTP, NCI, 2024)
